The test system of series [1] is LAN-1 human neuroblastoma spheroid system. Nature of the series: In vitro chemosensitization with Adriamycin, spheroids. It counts as cell-based. As to conditions: in the presence of PFC Dispersion B. As to the method:
(§1) In the course of in vitro chemosensitization studies in the LAN-1 human neuroblastoma spheroid system, conducted substantially as described in Example 4 above except for Adriamycin as the chemotherapeutic agent, it was noted that the anti-tumor activity of the Adriamycin was inhibited by the PFC material (PFC Dispersion B). […] This was tested by dissolving in water a radio-labelled analogue of Adriamycin, C^14-Daunomycin, adding Dispersion B (or in separate experiments, the neat PFC component of Dispersion B), blending for 30 minutes, separating the PFC phase from the aqueous phase, and determining the distribution of drug between the phases. Table VIII below reports the results of the experiment and similar experiments with three other drugs. It will be noted that the more lipophilic Duanomycin preferentially partitioned into the PFC phase whereas the other, less lipophilic, drugs favored the aqueous phase. It was concluded that although the PFC may have an inhibitory effect on less lipophilic drugs, the delivery of lipophilic drugs will be enhanced by the PFC.

The subject of series [2] is MCa-11 mammary carcinoma. Briefly: In vivo chemosensitization with cyclophosphamide. Set-up: species or system BALB/c mice. As to conditions: cyclophosphamide 75 mg/kg i.p. single dose. As to the method:
The combined use of PFC dispersion (Dispersion B) and high oxygen breathing for enhancement of the anti-tumor effects of cyclophosphamide ("CYC") was investigated with respect to treatment of MCa-11 mammary carcinoma transplanted into the right hind leg of female BALB/c mice. The tumors were allowed to grow to 2 mm at which point the animals were treated as described in Table VII below, wherein the cyclophosphamide, obtained commercially, was dissolved in distilled water and injected in a volume equal to […] of body weight. Three to six animals per treatment group were used in the study. On the day of treatment and three to five times per week thereafter, the tumors were sized with vernier calipers.

Series [3] is described as follows: Distribution of drug between PFC phase and aqueous phase of Dispersion B. It counts as physicochemical. As to conditions: for Drug in emulsion÷ drug in aqueous phase: Dispersion B, blending for 30 minutes. As for the experimental part: as §1
The partitioning of the Vincristine between the PFC and aqueous phases of Dispersion B was first studied in comparison with Daunomycin, as reported in Table IX below, where "PFC" means the PFC phase of Dispersion B.

A short description of series [4]: Octanol:water partition coefficient.
Series [5] relates to NB-100 neuroblastoma multicellular tumor spheroids. Briefly: In vitro chemosensitization with methotrexate, MTS. The series is classed as cell-based, human. As to conditions: 5 µM MTX for 24 hours.
Series [6] relates to MCa-11 mammary carcinoma. Briefly: In vivo chemosensitization with Vincristine. Also on record: species or system BALB/c mice. The settings on record: Vincristine 1.5 mg/kg i.p. single dose, or 20 ml/kg Dispersion B i.v. with carbogen breathing, each alone.
Experimental: The MCa-11 mammary carcinoma was transplanted into the thigh of BALB/c mice and grown to a diameter of 6 mm, at which time the mice were treated. Control mice received an injection of saline, while Vincristine treatment consisted of a single dose of 1.5 mg/kg of Vincristine administered intraperitoneally. PFC treatment consisted of an i.v. injection of 20 ml/kg of Dispersion B, followed by two hours of breathing carbogen (95% 02/5% C02), and injection of saline of Vincristine as before, followed by another two hours of carbogen breathing.
Series [7] has as its system P388 leukemia. The settings on record: cited from earlier work.
Where [8] appears, read: 1 hour, PFC phase of Dispersion B.

Each structure is given as a SMILES string. Marks after values point to notes of the source that are not given here.

The values that follow come from patent publication EP0105584B1, “Perfluorocarbon emulsions and their preparation and use in therapy” (ADAMANTECH, INC., priority 1982, dated 1984).

As usually defined, the logP is the decadic logarithm of the partition coefficient of the neutral form, usually between octanol and water.

Turning to `COc1cccc2c1C(=O)c1c(O)c3c(c(O)c1C2=O)C[C@@](O)(C(=O)CO)C[C@@H]3O[C@H]1C[C@H](N)[C@H](O)[C@H](C)O1` [Adriamycin], the anti-tumor activity entry in series [1] was “inhibited”.

With `O=P1(N(CCCl)CCCl)NCCCO1` (stereo not drawn) [Cyclophosphamide, cyclophosphamide], in series [2] (interpolated from the tumor growth curves), the “Days to grow 6 mm” value was 17.8 days. Besides, the Growth delay in series [2] (relative to untreated controls) was found to be 5.3.

With `COc1cccc2c1C(=O)c1c(O)c3c(c(O)c1C2=O)C[C@@](O)(C(C)=O)C[C@@H]3O[C@H]1C[C@H](N)[C@H](O)[C@H](C)O1` [Daunomycin], the “PFC/H2O (ratio of concentrations in the emulsion and the aqueous phases)” value in series [3] (setting [8]) came to 1.23; in series [3] (3 hours, PFC phase of Dispersion B), 3.80. Also, in series [3], the “Drug in emulsion÷ drug in aqueous phase” value is recorded as 3.77. Also, the logP in series [4] is -0.102.

Regarding `CN(Cc1cnc2nc(N)nc(N)c2n1)c1ccc(C(=O)N[C@@H](CCC(=O)O)C(=O)O)cc1` [MTX, methotrexate], the “Lipophilicity index (partition coefficient of the drug between octanol and water)” value is on record as 0.014. Also, the “D8, number of days required for the MTS to grow 8 units or 200 µm beyond their original diameter” value in series [5] is reported as 9.52 days. Further, in series [5] (Day 0, 1 unit=25 µm), the MTS sizes came out at 9.83±0.17 microscope units. In series [5] (Day 1), the MTS sizes amounted to 9.74 microscope units. In series [5] (Day 4), the MTS sizes is 10.69 microscope units. For the same compound, in series [5] (Day 6), the MTS sizes came to 11.76 microscope units. For the same compound, the MTS sizes in series [5] (Day 8) was determined as 13.93 microscope units. The MTS sizes in series [5] (Day 12) is reported as 18.93 microscope units. In series [5] (Day 15), the MTS sizes is reported as 21.83 microscope units. Further, in series [3], the “Drug in emulsion÷ drug in aqueous phase” value turned out to be 0.07.

For the compound `COCC(O)Cn1ccnc1[N+](=O)[O-]` (stereo not drawn) [Misonidazole], the “Drug in emulsion÷ drug in aqueous phase” value in series [3] was found to be 0.04. Moreover, the logP in series [4] was -0.367.

For `CC[C@]1(O)C[C@H]2CN(CCc3c([nH]c4ccccc34)[C@@](C(=O)OC)(c3cc4c(cc3OC)N(C=O)[C@H]3[C@@](O)(C(=O)OC)[C@H](OC(C)=O)[C@]5(CC)C=CCN6CC[C@]43[C@@H]65)C2)C1` [Vincristine], the “effect on tumor growth” value in series [6] is “no effect on tumor growth”. The “PFC/H2O (ratio of concentrations in the emulsion and the aqueous phases)” value was 2.69 in series [3] (setting [8]) and 9.10^c in series [3] (3 hours, determined via bioassay in the LAN-1 neuroblastoma spheroid system). The logP in series [4] was 2.83.

For `NCCCNCCSP(=O)(O)O` [WR-2721, S - 2 - (3 - aminopropylamino) ethylphosphorothioic acid], the “Drug in emulsion÷ drug in aqueous phase” value in series [3] is listed as 0.05. In addition, the logP in series [4] was -2.7.

With `FC(F)(F)C(F)(F)C(F)(F)C(F)(F)C(F)(F)C(F)(F)C(F)(F)C(F)(F)Br` [perfluorooctyl bromide], the local toxicity entry in series [7] (mouse, in vivo) is “local toxic reactions in the peritoneal cavity were observed”. The “improvement in therapy (survival time)” value in series [7] (oxygen-saturated neat compound injected 24 hours before graded doses of whole body X-rays, versus salt solution) was “failed to show a significant improvement in therapy”.
